{
  "source": "patent US9295673B2",
  "about": "“Combination of mTOR inhibitors and P13-kinase inhibitors, and uses thereof” (Intellikine LLC, priority 2011, dated 2016)",
  "key": {"[1]": {"tested_on": "MDA-MB-361 (PI3Kα/HER2 carcinoma) tumors", "test": "In vivo efficacy in MDA-MB-361 xenograft mouse model of breast cancer", "set-up": "species or system nude mice", "settings": "70 mg/kg Pan-PI3K inhibitor, 60 mg/kg compound A, FIG. 9 left panel", "experimental": "Blood glucose was monitored periodically following administration of treatment.\nTreatment of tumors (MDA-MB-361) with compounds was discontinued on Day 30. Tumors were measured every 2-5 days."}, "[2]": {"tested_on": "B cell function", "test": "B cell function in vivo (TNP-Ficoll immunization, antibody production)", "set-up": "species or system mouse", "settings": "mice immunized with TNP-Ficoll; 70 mg/kg GDC0941; 30, 60 or 120 mg/kg Compound A for 7 days (FIG. 8)", "procedure": "Antibody production was measured as a percentage of control group that were treated with vehicle."}, "[3]": {"tested_on": "786-O human kidney carcinoma tumors", "test": "In vivo efficacy in 786-O xenograft model", "set-up": "species or system nude mice", "settings": "oral, FIG. 6"}, "[4]": {"tested_on": "pAKT(S473), pAKT(T308) in PC3 cells", "test": "Western blot of Akt phosphorylation (pAKT) in PC3 cells", "assay_type": "cell-based", "experimental": "(§1) Cells comprising one or more mutations in PI3Kα, including but not limited to breast cancer cells (e.g., MDA-MB-361, T47D, SKOV-3), and cells comprising one or more mutations in PTEN including but not limited to prostate cancer cells (e.g., PC3), are typically grown in cell growth media such as DMEM supplemented with fetal bovine serum and/or antibiotics, and grown to confluency. Cells are then treated with various concentrations of test compound for about 2 hours and subsequently lysed in cell lysis buffer. Lysates are subjected to SDS-PAGE followed by Western blot analysis to detect downstream signaling markers, including but not limited to pAKT(S473), pAKT(T308), pS6, and p4E-BP1."}, "[5]": {"tested_on": "pAKT(S473) in MDA-MB-361 cells", "test": "Western blot of Akt phosphorylation (pAKT) in MDA-MB-361 cells", "assay_type": "cell-based, human", "settings": "about 2 hours treatment, read-out: inhibition of pAKT, IC50", "experimental": "as §1\nMDA-MB-361(PIK3CA-E545K), MDA-MB-453 (PIK3CA-H1047R), and SK-Br3 (Her2) cells were treated with various concentrations of Compound A for 2 h and subsequently lysed. Lysates were subjected to SDS-PAGE followed by Western blot analysis as described above to detect downstream pathway markers."}, "[6]": {"tested_on": "breast cancer model", "test": "Preclinical breast cancer model (tumor weight / volume)", "assay_type": "in vivo", "settings": "for tumor weight of a breast cancer model: 70 mg/kg Pan-PI3K inhibitor, 60 mg/kg compound A (FIG. 9 left); for tumor weight in a preclinical breast cancer model: combined treatment with Compound A and Compound B (FIG. 2)"}, "[7]": {"tested_on": "Akt, S6, 4EBP phosphorylation", "test": "Western blot of PI3K pathway phosphorylation (Akt, S6, 4EBP)", "assay_type": "cell-based", "settings": "for inhibition of Akt, S6, and 4EBP phosphorylation: PTEN mutant cells, western blot (FIG. 6B); for downregulating Akt and S6 phosphorylation: combined treatment with Compound A and Compound B, western blot (FIG. 3)"}, "[8]": {"target": "PI3K α (Homo sapiens, UniProt P42336)", "sequence (P42336 whole entry)": "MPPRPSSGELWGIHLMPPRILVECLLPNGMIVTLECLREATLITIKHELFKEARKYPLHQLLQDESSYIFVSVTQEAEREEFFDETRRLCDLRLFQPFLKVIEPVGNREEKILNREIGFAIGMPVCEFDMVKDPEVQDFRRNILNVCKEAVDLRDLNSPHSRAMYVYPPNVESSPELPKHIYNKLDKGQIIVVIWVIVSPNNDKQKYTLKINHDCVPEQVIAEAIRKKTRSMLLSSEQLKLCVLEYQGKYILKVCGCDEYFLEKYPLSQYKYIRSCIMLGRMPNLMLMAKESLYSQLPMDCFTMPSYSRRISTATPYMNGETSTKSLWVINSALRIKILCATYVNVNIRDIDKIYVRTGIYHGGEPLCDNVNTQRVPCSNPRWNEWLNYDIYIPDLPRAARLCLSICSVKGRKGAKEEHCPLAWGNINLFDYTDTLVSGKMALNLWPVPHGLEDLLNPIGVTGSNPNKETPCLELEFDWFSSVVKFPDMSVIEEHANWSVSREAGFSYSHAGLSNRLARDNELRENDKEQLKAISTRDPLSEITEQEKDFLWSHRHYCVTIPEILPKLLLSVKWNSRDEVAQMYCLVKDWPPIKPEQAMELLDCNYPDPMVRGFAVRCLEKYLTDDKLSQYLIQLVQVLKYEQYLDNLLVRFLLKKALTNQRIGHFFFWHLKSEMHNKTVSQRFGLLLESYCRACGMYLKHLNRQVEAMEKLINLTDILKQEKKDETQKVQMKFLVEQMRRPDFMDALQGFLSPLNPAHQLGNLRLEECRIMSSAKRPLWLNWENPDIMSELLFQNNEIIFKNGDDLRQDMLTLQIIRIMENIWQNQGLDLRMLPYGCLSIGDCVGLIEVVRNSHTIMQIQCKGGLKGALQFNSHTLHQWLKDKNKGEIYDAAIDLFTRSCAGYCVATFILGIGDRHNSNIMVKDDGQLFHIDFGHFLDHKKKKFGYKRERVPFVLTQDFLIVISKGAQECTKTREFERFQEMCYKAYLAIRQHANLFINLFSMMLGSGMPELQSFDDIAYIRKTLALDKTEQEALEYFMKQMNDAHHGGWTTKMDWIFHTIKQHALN", "sequence (P27986 whole entry partner)": "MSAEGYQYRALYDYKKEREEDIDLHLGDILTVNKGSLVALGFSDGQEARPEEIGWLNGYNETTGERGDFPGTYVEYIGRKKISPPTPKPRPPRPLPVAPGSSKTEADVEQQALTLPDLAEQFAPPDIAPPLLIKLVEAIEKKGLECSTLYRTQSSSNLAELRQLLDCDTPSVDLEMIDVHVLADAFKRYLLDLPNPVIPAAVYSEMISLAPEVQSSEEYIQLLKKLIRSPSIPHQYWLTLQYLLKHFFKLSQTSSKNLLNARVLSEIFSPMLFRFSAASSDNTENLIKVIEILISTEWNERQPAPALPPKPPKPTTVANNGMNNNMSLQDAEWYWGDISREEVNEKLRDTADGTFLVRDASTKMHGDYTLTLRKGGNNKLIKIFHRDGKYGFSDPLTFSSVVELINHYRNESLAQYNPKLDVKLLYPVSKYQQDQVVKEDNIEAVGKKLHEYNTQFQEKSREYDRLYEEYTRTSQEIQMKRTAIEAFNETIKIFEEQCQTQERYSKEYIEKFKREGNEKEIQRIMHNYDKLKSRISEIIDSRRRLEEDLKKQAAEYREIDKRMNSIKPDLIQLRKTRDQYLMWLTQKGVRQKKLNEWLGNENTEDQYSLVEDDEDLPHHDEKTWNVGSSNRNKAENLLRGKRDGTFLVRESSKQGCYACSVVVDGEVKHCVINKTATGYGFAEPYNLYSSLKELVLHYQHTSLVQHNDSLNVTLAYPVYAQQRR", "test": "PI 3-Kinase (human) HTRF assay, PI3K α", "settings": "chart (FIG. 6C)"}, "[9]": {"tested_on": "MDA-MB-361 cells", "test": "Cell proliferation (CellTiter-Glo) in MDA-MB-361 cells", "assay_type": "cell-based, human", "settings": "read-out: inhibition of cell proliferation, IC50", "experimental": "as §1\nCells were seeded at 5000-10,000 per well in a 96 well flat bottom plate 90 ul growth media. Pre-diluted compound (at 10 times the final concentration) or DMSO (control) was added. The compounds were prepared such that the dose range extended from a final concentration of 30 μM to 14 nM via 3-fold serial dilutions (8 point curve). The final DMSO concentration was 0.3%. […] After 72 hours, proliferation was measured using CellTiter-Glo Luminescent reagent (Promega, PR-G7573). […] Contents were mixed for 30 minutes on an orbital shaker to lyse cells Luminescence was read on a PerkinElmer EnVision plate reader. […] Inhibition % was calculated as: 1−(cells+inhibitor)−background signal)/(cells+DMSO)−background signal)[…]."}, "[10]": {"tested_on": "human tumor cell lines", "test": "Tumor cell line proliferation assay", "assay_type": "cell-based", "settings": "chart (FIG. 13)", "experimental": "The ability of one or more subject compounds to inhibit tumor cell line proliferation is determined according to standard procedures known in the art. For instance, an in vitro cellular proliferation assay can be performed to measure the metabolic activity of live cells. The assay is performed in a 96 well microtiter plate using Alamar Blue reduction. Human tumor cell lines are obtained from ATCC (e.g., MCF7, U-87 MG, MDA-MB-468, PC-3), grown to confluency in T75 flasks, trypsinized with 0.25% trypsin, washed one time with Tumor Cell Media (DMEM+10% FBS), and plated in 90 ul at 5,000 cells/well in Tumor Cell Media. A compound disclosed herein is diluted in Tumor Cell Media and added in a 10 ul volume. Plates are incubated for 72 hours at 37 C and 5% CO2. A volume of 10 uL of Alamar Blue reagent is added to each well and plates are incubated for 3 hours at 37 C and 5% CO2. Alamar Blue fluoresce is read at 560Ex/590Em, and IC50 values are calculated using GraphPad Prism 5."}, "[11]": {"tested_on": "mTORC1 and mTORC2 in 786-O cells", "test": "Western blot of pNDRG1 in 786-O cells (mTOR pathways)", "assay_type": "cell-based, human", "settings": "FIG. 5", "source_text": "Cells were subsequently lysed and lysates were subjected to SDS-PAGE followed by Western blot analysis to detect the downstream pathway marker, pNDRG1."}, "[12]": {"tested_on": "NRDG1 phosphorylation", "test": "Western blot of NRDG1 phosphorylation", "assay_type": "cell-based", "settings": "western blot (FIG. 5B)"}, "[13]": {"tested_on": "marginal zone B cells", "test": "Marginal zone B cells in mouse spleen (FACS)", "settings": "70 mg/kg Pan-PI3K inhibitor, 60 mg/kg Compound A; spleens harvested 2 hrs after last dose; FIG. 9", "procedure": "The effect of the compounds on the localization/viability of marginal zone B cells in the spleen is also evaluated at the conclusion of treatment.\nSpleens were harvested 2 hrs after the last dose, processed and stained with appropriate antibodies (marginal zone B cell: B220+; CD23−; CD21hi) and analyzed for staining on GUAVA EasyCyte FACS machine using Guava Cytosoft 5.2 software."}, "[14]": {"tested_on": "MZB cells", "test": "MZB cells in mouse spleen", "assay_type": "in vivo", "settings": "70 mg/kg Pan-PI3K inhibitor compared to 60 mg/kg Compound A (FIG. 9 right)"}, "[15]": {"tested_on": "anti-TNP antibody production", "test": "TNP-Ficoll T-cell independent B-cell activation assay", "assay_type": "in vivo", "settings": "mice, 7 days; 70 mg/kg GDC0941; 30, 60, 120 mg/kg Compound A; ELISA; FIG. 8", "experimental": "To test the effects of the compounds of the present invention in suppressing T cell independent antibody production, the TNP-Ficoll B-cell activation assay is used as described herein. Compounds of the present invention are dissolved in an appropriate vehicle (e.g. 5% 1-methyl-2-pyrrolidinone, 85% polyethylene glycol 400, 10% Solutor). Compounds are administered orally approximately 1 hr before TNP-Ficoll treatment to 4-10 week old mice. To study the effects of the compounds on B-cell activation, one set of mice are grouped according to the following table:\nFour animals in group 1, and eight animals in groups 2 to 7 are euthanized in CO2 2 hours after the last compound administration on day 7. […]\nSerum samples are analyzed for anti-TNP antibody titers by ELISA as described herein. […] HRP substrate (200 μl ABTS solution+30% H2O2+10 ml citrate buffer) is added to each well at 100 μl/well, incubated 2-20 minutes in the dark and the amount of anti-TNP IgG3 is determined spectrophotometrically at 405 nm. Similarly, anti-TNP IgM and total anti-TNP Ab are determined using anti-mouse IgM-HRP and anti-mouse Ig-HRP respectively.\nAntibody production was measured using ELISA and plotted as as a percentage of control group that were treated with vehicle."}},
  "data": [
    {"smiles": "Nc1nc2cc(-c3ccc4ncc(C(=O)N5CCOCC5)n4c3)ccc2o1", "note": "[Compound A]", "values": [
      {"measurement": "tumor weight", "setting": "[1]", "result": "reduction in tumor weight"},
      {"measurement": "B cell function in vivo (antibody production)", "setting": "[2]", "result": "not"},
      {"measurement": "inhibition of kinase activity (downstream markers) and tumor growth", "setting": "[3]", "result": "decreased activity by comparison to that seen in the MDA derived tumors"},
      {"measurement": "IC50", "setting": "[4]; PC3 cells, about 2 hours treatment, read-out: inhibition of pAKT, IC50", "result": "~10", "unit": "µM"},
      {"measurement": "IC50", "setting": "[5]", "result": "~1", "unit": "µM"},
      {"measurement": "tumor weight of a breast cancer model", "setting": "[6]", "result": "reduction in tumor weight"},
      {"measurement": "tumor weight in a preclinical breast cancer model", "setting": "[6]", "result": "synergistic effect"},
      {"measurement": "reducing tumor volume of a preclinical breast cancer model", "setting": "[6]; combined treatment with Compound A and rapamycin (FIG. 4)", "result": "synergistic effect"},
      {"measurement": "inhibition of the PI3K pathway in cell lines with elevated PI3K α activity", "setting": "[7]; MDA-MB-361, MDA-MB-453, SKBr3 breast cancer cells, western blot (FIG. 11)", "result": "inhibition"},
      {"measurement": "inhibition of Akt, S6, and 4EBP phosphorylation", "setting": "[7]", "result": "not"},
      {"measurement": "Akt phosphorylation at serine 473", "setting": "[7]; PTEN-mutant cell line (FIG. 12B)", "result": "reduced inhibition"},
      {"measurement": "downregulating Akt and S6 phosphorylation", "setting": "[7]", "result": "synergistic effect"},
      {"measurement": "Akt phosphorylation at serine 473", "setting": "[7]; western blot (FIG. 12A)", "result": "inhibition"},
      {"measurement": "specificity in inhibiting PI3K α over mTOR and other PI3K isoforms", "setting": "[8]", "result": "specificity"},
      {"measurement": "IC50", "setting": "[9]", "result": "~1.9", "unit": "µM"},
      {"measurement": "proliferation of tumor cells harboring PI3K α mutations", "setting": "[10]", "result": "preferentially inhibits"}
    ]},
    {"smiles": "CC(C)n1nc(-c2ccc3oc(N)nc3c2)c2c(N)ncnc21", "note": "[Compound B]", "values": [
      {"measurement": "inhibition of kinase activity (downstream markers) and tumor growth", "setting": "[3]", "result": "effective at inhibiting kinase activity"},
      {"measurement": "effects on mTORC1 and mTORC2 (pNDRG1)", "setting": "[11]", "result": "differential effects on mTORC1 and mTORC2"},
      {"measurement": "inhibition of Akt phosphorylation, serine 473 versus threonine 308", "setting": "[4]; PC3 model, FIG. 7", "result": "differential inhibition of Akt phosphorylation at serine 473 over threonine 308"},
      {"measurement": "tumor weight in a preclinical breast cancer model", "setting": "[6]", "result": "synergistic effect"},
      {"measurement": "inhibition of Akt, S6, and 4EBP phosphorylation", "setting": "[7]", "result": "selective inhibition"},
      {"measurement": "downregulating Akt and S6 phosphorylation", "setting": "[7]", "result": "synergistic effect"},
      {"measurement": "inhibition of Akt phosphorylation at serine 473 over threonine 308", "setting": "[7]; western blot (FIG. 7)", "result": "differential inhibition"},
      {"measurement": "mTORC1-dependent NRDG1 phosphorylation", "setting": "[12]", "result": "sensitivity"}
    ]},
    {"smiles": "CS(=O)(=O)N1CCN(Cc2cc3nc(-c4cccc5[nH]ncc45)nc(N4CCOCC4)c3s2)CC1", "note": "[Pan-PI3K inhibitor, GDC0941, reference compound]", "values": [
      {"measurement": "tumor weight", "setting": "[1]", "result": "reduction in tumor weight"},
      {"measurement": "B cell function in vivo (antibody production)", "setting": "[2]", "result": "blocks"},
      {"measurement": "presence (localization/viability) of marginal zone B cells in spleen", "setting": "[13]", "result": "reduced presence of MZB cells"},
      {"measurement": "presence of MZB cells in mouse spleen", "setting": "[14]", "result": "reduced presence"},
      {"measurement": "tumor weight of a breast cancer model", "setting": "[6]", "result": "reduction in tumor weight"},
      {"measurement": "B cell function in vivo (antibody production after TNP-Ficoll)", "setting": "[15]", "result": "blocks B cell function in vivo"}
    ]}
  ]
}
